“And” between values parts separate entries of the source, which are not always exact repeats. Equal entries are not always repeated. Inconclusive results and toxic doses are left out. Starred links: 1 amine or outer side, 2 acyl side, 3 side chain; linkers in the order of their positions; H or OH if unused. Positions of bridges follow the written chain, without caps; N, C: chain ends. Non-standard residues stand in square brackets, D forms with d. Residues, ends and D or L forms follow the SMILES beside them. Chains are numbered I, II in the order given. Actinocin(9to1) = Cc1c2oc3c(C)ccc(C(=O)[*:1])c3nc-2c(C(=O)[*:2])c(N)c1=O; aThr = C[C@H](O)[C@H](N)C(=O)O; NMeV = CN[C@H](C(=O)O)C(C)C; Sar = CNCC(=O)O
Test system: CD2F1 mice, L1210 leukemia sc, survival T/C
Assay: NCI In Vivo Anticancer Drug Screen. Data for tumor model L1210 Leukemia (subcutaneous) in CD2F1 (CDF1) mice
Conditions: endpoint: median survival time, higher = longer survival
How it was run: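 Read-out: survival or tumor size. Value = treated (T) / vehicle control (C). Transplantable tumor in mice.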

[1] = dose: 108.0 mg/kg/injection, schedule: Q01DX Z (sc), vehicle: methylcellulose (MC)
[2] = dose: 180.0 mg/kg/injection, schedule: Q01DX Z (sc), vehicle: methylcellulose (MC)
[3] = dose: 21.6 mg/kg/injection, schedule: Q01DX009 (ip), vehicle: water
[4] = dose: 36.0 mg/kg/injection, schedule: Q01DX009 (ip), vehicle: water
[5] = dose: 100.0 mg/kg/injection, schedule: Q01DX009 (ip), vehicle: water

## Clc1ccc(CNc2ncnc3[nH]ncc23)cc1Cl
dose: 8.4 mg/kg/injection, schedule: Q01DX Z (sc), vehicle: methylcellulose (MC)
  T/C: 95 % of control
dose: 14.0 mg/kg/injection, schedule: Q01DX Z (sc), vehicle: methylcellulose (MC)
  T/C: 95 % of control
dose: 23.0 mg/kg/injection, schedule: Q01DX Z (sc), vehicle: methylcellulose (MC)
  T/C: 95 % of control
dose: 39.0 mg/kg/injection, schedule: Q01DX Z (sc), vehicle: methylcellulose (MC)
  T/C: 100 % of control
dose: 65.0 mg/kg/injection, schedule: Q01DX Z (sc), vehicle: methylcellulose (MC)
  T/C: 104 % of control
[1]
  T/C: 114 % of control
[2]
  T/C: 104 % of control

## O=c1n[n+]([O-])ccn1C1OC(CO)C(O)C1O (configuration not stated)
dose: 172.8 mg/kg/injection, schedule: Q01DX009 (ip), vehicle: saline
  T/C: 109 % of control
dose: 288.0 mg/kg/injection, schedule: Q01DX009 (ip), vehicle: saline
  T/C: 123 % of control
dose: 480.0 mg/kg/injection, schedule: Q01DX009 (ip), vehicle: saline
  T/C: 152 % of control

## Nc1c(/C=C/c2cc3cc(C4=NCCN4)ccc3o2)[nH]c2cc(C3=NCCN3)ccc12
dose: 3.12 mg/kg/injection, schedule: Q01DX009 (ip), vehicle: Klucel (hydroxypropylcellulose) (HPC)
  T/C: 100 % of control
dose: 6.25 mg/kg/injection, schedule: Q01DX009 (ip), vehicle: Klucel (hydroxypropylcellulose) (HPC)
  T/C: 100 % of control
dose: 12.5 mg/kg/injection, schedule: Q01DX009 (ip), vehicle: Klucel (hydroxypropylcellulose) (HPC)
  T/C: 96 % of control
dose: 25.0 mg/kg/injection, schedule: Q01DX009 (ip), vehicle: Klucel (hydroxypropylcellulose) (HPC)
  T/C: 106 % of control

## CN1CCN(CN2C(=O)C3C4C=CC(C3C2=O)C2C3C(=O)N(CN5CCN(C)CC5)C(=O)C3C42)CC1 (configuration not stated)
[3]
  T/C: 106 % of control
dose: 24.8 mg/kg/injection, schedule: Q01DX009 (ip), vehicle: water
  T/C: 118 % of control
[4]
  T/C: 113 % of control
dose: 41.3 mg/kg/injection, schedule: Q01DX009 (ip), vehicle: water
  T/C: 150 % of control
dose: 60.0 mg/kg/injection, schedule: Q01DX009 (ip), vehicle: water
  T/C: 170 % of control
dose: 68.8 mg/kg/injection, schedule: Q01DX009 (ip), vehicle: water
  T/C: 174 % of control
[5]
  T/C: 243 % of control
dose: 114.7 mg/kg/injection, schedule: Q01DX009 (ip), vehicle: water
  T/C: 235 % of control

## Cc1c2oc3c(C)ccc(C(=O)N[C@@H]4C(=O)N[C@H](C(C)C)C(=O)N5CCC[C@H]5C(=O)N(C)CC(=O)N(C)[C@@H](C(C)C)C(=O)O[C@H]4C)c3nc-2c(C(=O)N[C@@H]2C(=O)N[C@H](C(C)C)C(=O)N3CCC[C@H]3C(=O)N(C)CC(=O)N(C)[C@@H](C(C)C)C(=O)O[C@H]2C)c(N)c1=O (I: [aThr][dV]P[Sar][NMeV] / II: [aThr][dV]P[Sar][NMeV]; ester I:1-I:C, II:1-II:C; linker I:N-II:N via Actinocin(9to1))
dose: 0.05 mg/kg/injection, schedule: Q01DX009 (sc), vehicle: saline
  T/C: 101 % of control
dose: 0.05 mg/kg/injection, schedule: Q01DX Z (sc), vehicle: other
  T/C: 108 % of control and 100 % of control
dose: 0.05 mg/kg/injection, schedule: Q01DX Z (sc), vehicle: saline
  T/C: 100 % of control
dose: 0.08 mg/kg/injection, schedule: Q01DX Z (sc), vehicle: other
  T/C: 112 % of control
dose: 0.08 mg/kg/injection, schedule: Q07DX Z (sc), vehicle: other
  T/C: 100 % of control
dose: 0.09 mg/kg/injection, schedule: Q01DX Z (sc), vehicle: other
  T/C: 116 % of control
dose: 0.1 mg/kg/injection, schedule: Q01DX009 (sc), vehicle: saline
  T/C: 113 % of control
dose: 0.13 mg/kg/injection, schedule: Q01DX009 (sc), vehicle: saline
  T/C: 122 % of control
dose: 0.14 mg/kg/injection, schedule: Q07DX Z (sc), vehicle: other
  T/C: 112 % of control
dose: 0.15 mg/kg/injection, schedule: Q01DX009 (sc), vehicle: saline
  T/C: 120 % of control
dose: 0.2 mg/kg/injection, schedule: Q01DX009 (sc), vehicle: saline
  T/C: 105 % of control and 113 % of control
dose: 0.23 mg/kg/injection, schedule: Q07DX Z (sc), vehicle: other
  T/C: 112 % of control
dose: 0.25 mg/kg/injection, schedule: Q01DX009 (sc), vehicle: saline
  T/C: 93 % of control
dose: 0.3 mg/kg/injection, schedule: Q01DX009 (sc), vehicle: saline
  T/C: 95 % of control
dose: 0.39 mg/kg/injection, schedule: Q07DX Z (sc), vehicle: other
  T/C: 112 % of control
dose: 0.42 mg/kg/injection, schedule: Q01DX Z (sc), vehicle: other
  T/C: 116 % of control
dose: 0.7 mg/kg/injection, schedule: Q01DX Z (sc), vehicle: other
  T/C: 112 % of control
dose: 1.17 mg/kg/injection, schedule: Q01DX Z (sc), vehicle: other
  T/C: 100 % of control
dose: 12.0 micrograms/kg/injection, schedule: Q01DX009 (ip), vehicle: saline
  T/C: 101 % of control
dose: 12.0 micrograms/kg/injection, schedule: Q01DX009 (sc), vehicle: saline
  T/C: 101 % of control
dose: 25.0 micrograms/kg/injection, schedule: Q01DX009 (ip), vehicle: saline
  T/C: 102 % of control
dose: 25.0 micrograms/kg/injection, schedule: Q01DX009 (sc), vehicle: saline
  T/C: 100 % of control
dose: 50.0 micrograms/kg/injection, schedule: Q01DX009 (ip), vehicle: saline
  T/C: 98 % of control
dose: 50.0 micrograms/kg/injection, schedule: Q01DX009 (sc), vehicle: saline
  T/C: 101 % of control
dose: 100.0 micrograms/kg/injection, schedule: Q01DX009 (ip), vehicle: saline
  T/C: 113 % of control
dose: 100.0 micrograms/kg/injection, schedule: Q01DX009 (sc), vehicle: saline
  T/C: 103 % of control and 119 % of control
dose: 200.0 micrograms/kg/injection, schedule: Q01DX009 (ip), vehicle: saline
  T/C: 107 % of control
dose: 200.0 micrograms/kg/injection, schedule: Q01DX009 (sc), vehicle: saline
  T/C: 114 % of control and 118 % of control
dose: 400.0 micrograms/kg/injection, schedule: Q01DX009 (sc), vehicle: saline
  T/C: 112 % of control and 86 % of control

## O=C(CSc1ncnc2nc[nH]c12)c1ccccc1
dose: 38.9 mg/kg/injection, schedule: Q01DX Z (sc), vehicle: methylcellulose (MC)
  T/C: 95 % of control
dose: 64.8 mg/kg/injection, schedule: Q01DX Z (sc), vehicle: methylcellulose (MC)
  T/C: 95 % of control
[1]
  T/C: 100 % of control
[2]
  T/C: 100 % of control
dose: 300.0 mg/kg/injection, schedule: Q01DX Z (sc), vehicle: methylcellulose (MC)
  T/C: 100 % of control
dose: 500.0 mg/kg/injection, schedule: Q01DX Z (sc), vehicle: methylcellulose (MC)
  T/C: 100 % of control

## NC(Cc1ccccc1)C(=O)OCN1C(=O)C2C3C=CC(C2C1=O)C1C2C(=O)N(COC(=O)C(N)Cc4ccccc4)C(=O)C2C31 (configuration not stated)
dose: 21.6 mg/kg/injection, schedule: Q01DX005 (iv), vehicle: other
  T/C: 107 % of control
dose: 21.6 mg/kg/injection, schedule: Q01DX009 (ip), vehicle: other
  T/C: 111 % of control
[3]
  T/C: 107 % of control and 121 % of control
dose: 30.9 mg/kg/injection, schedule: Q01DX005 (iv), vehicle: other
  T/C: 105 % of control
dose: 30.9 mg/kg/injection, schedule: Q01DX009 (ip), vehicle: other
  T/C: 112 % of control
dose: 30.9 mg/kg/injection, schedule: Q01DX009 (ip), vehicle: water
  T/C: 107 % of control
[4]
  T/C: 109 % of control
dose: 44.1 mg/kg/injection, schedule: Q01DX005 (iv), vehicle: other
  T/C: 111 % of control
dose: 44.1 mg/kg/injection, schedule: Q01DX009 (ip), vehicle: other
  T/C: 114 % of control
dose: 63.0 mg/kg/injection, schedule: Q01DX005 (iv), vehicle: other
  T/C: 117 % of control
dose: 90.0 mg/kg/injection, schedule: Q01DX009 (ip), vehicle: other
  T/C: 177 % of control
dose: 90.0 mg/kg/injection, schedule: Q01DX009 (ip), vehicle: water
  T/C: 169 % of control
[5]
  T/C: 211 % of control
dose: 128.6 mg/kg/injection, schedule: Q01DX009 (ip), vehicle: other
  T/C: 221 % of control
dose: 128.6 mg/kg/injection, schedule: Q01DX009 (ip), vehicle: water
  T/C: 227 % of control
dose: 216.0 mg/kg/injection, schedule: Q01DX009 (oral), vehicle: water
  T/C: 122 % of control
dose: 441.0 mg/kg/injection, schedule: Q01DX009 (oral), vehicle: other
  T/C: 162 % of control
dose: 630.0 mg/kg/injection, schedule: Q01DX009 (oral), vehicle: other
  T/C: 234 % of control
dose: 630.0 mg/kg/injection, schedule: Q01DX009 (oral), vehicle: water
  T/C: 171 % of control
dose: 900.0 mg/kg/injection, schedule: Q01DX009 (oral), vehicle: water
  T/C: 270 % of control
